Article PMC3179182 (Bioorganic & medicinal chemistry letters, 2010)

Experiments:
mGlu5 [1] = assay: mGlu5 assays; assay type: cell-based; settings: mode of mGlu5 pharmacology (NAM, PAM, Ago-PAM, Part. Antag., Inactive)
mGlu5 [2] = target: T1, mGlu5 (Rattus norvegicus, UniProt P31424); assay: mGlu5 assays; assay type: cell-based; settings: NAM IC50 relative to 8
mGlu5 [3] = settings: % partial; cited from earlier work
mGlu5 [4] = target: T1, mGlu5; settings: phenylethynyl pyrimidine series; cited from earlier work
T1 sequence (P31424 21-1203): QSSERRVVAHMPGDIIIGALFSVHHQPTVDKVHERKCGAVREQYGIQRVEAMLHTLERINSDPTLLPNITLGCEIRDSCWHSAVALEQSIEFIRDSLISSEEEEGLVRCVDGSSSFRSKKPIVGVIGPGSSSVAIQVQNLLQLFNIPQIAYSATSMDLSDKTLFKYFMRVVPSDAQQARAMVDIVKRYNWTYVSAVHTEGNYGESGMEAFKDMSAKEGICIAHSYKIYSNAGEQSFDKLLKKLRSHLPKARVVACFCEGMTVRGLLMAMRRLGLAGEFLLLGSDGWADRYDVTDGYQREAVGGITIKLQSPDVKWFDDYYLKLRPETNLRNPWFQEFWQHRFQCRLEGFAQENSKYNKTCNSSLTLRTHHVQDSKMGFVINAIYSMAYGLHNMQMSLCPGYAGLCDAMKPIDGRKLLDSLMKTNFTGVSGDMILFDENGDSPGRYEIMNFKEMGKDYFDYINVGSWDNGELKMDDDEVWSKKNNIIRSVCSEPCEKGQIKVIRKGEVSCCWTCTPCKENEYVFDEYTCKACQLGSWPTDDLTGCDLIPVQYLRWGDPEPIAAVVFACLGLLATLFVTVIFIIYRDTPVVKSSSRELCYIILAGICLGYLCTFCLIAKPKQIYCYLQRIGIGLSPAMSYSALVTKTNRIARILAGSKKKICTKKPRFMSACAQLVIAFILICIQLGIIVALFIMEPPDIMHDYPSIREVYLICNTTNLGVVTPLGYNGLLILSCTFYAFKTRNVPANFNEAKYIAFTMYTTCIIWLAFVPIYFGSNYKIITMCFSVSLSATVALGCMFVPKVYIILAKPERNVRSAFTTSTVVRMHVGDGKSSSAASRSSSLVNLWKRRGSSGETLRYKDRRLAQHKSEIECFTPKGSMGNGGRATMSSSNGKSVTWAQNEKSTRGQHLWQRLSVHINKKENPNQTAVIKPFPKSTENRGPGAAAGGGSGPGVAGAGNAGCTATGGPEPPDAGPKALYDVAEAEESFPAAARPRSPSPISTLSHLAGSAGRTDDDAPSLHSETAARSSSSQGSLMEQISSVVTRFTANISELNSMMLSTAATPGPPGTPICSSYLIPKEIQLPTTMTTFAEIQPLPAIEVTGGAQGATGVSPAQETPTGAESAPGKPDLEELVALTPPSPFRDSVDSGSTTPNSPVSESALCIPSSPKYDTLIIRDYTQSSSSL

T1 sequence (P31424 21-1203): as above

SMILES: Cc1cccc(-c2noc([C@H]3CCCCN3C(=O)C3CCCC3)n2)c1 [21c]
- Pharmacology (mGlu5 [1]): partial antagonists

SMILES: Cc1cccc(-c2noc([C@H]3CCCCN3C(=O)C3CCCCC3)n2)c1 [21d]
- Pharmacology (mGlu5 [1]): full non-competitive antagonists (NAMs)

SMILES: O=C(C1CC1)N1CCCC[C@@H]1c1nc(-c2cccc(F)c2)no1 [22a]
- Pharmacology (mGlu5 [1]): ago-PAMs

SMILES: O=C(C1CCC1)N1CCCC[C@@H]1c1nc(-c2cccc(F)c2)no1 [22b/20e]
- Pharmacology (mGlu5 [1]; listed as 22b): pure PAM activity

SMILES: O=C(C1CCCC1)N1CCCC[C@@H]1c1nc(-c2cccc(F)c2)no1 [22c]
- Pharmacology (mGlu5 [1]): ago-PAMs

SMILES: O=C(C1CCCCC1)N1CCCC[C@@H]1c1nc(-c2cccc(F)c2)no1 [22d]
- Pharmacology (mGlu5 [1]): pure PAM activity

SMILES: O=C(C1CCC1)N1CCCC1c1nc(-c2cccc(F)c2)no1 (stereo not shown) [23a]
- Pharmacology (mGlu5 [1]): low micromolar PAMs

SMILES: O=C(C1CCC1)N1CCCC1c1nc(-c2ccc(F)cc2)no1 (stereo not shown) [23b]
- Pharmacology (mGlu5 [1]): low micromolar PAMs

SMILES: O=C(C1CCC1)N1CCC[C@@H]1c1nc(-c2cccc(F)c2)no1 [(R)-23a]
- Pharmacology (mGlu5 [1]): potent mGlu5 PAM

SMILES: O=C(C1CCC1)N1CCC[C@H](c2nc(-c3cccc(Cl)c3)no2)C1 [(S)-15e]
- increase in potency over 8 (mGlu5 [2]): ~ 41 fold

SMILES: O=C(C1CCC1)N1CCC[C@H]1c1nc(-c2cccc(F)c2)no1 [(S)-23a]
- Pharmacology (mGlu5 [1]): very weak PAM

SMILES: C(#Cc1cncnc1)c1ccccc1 [compound 2]
- partial antagonism (mGlu5 [3]): 71%

SMILES: Cc1cccc(C#Cc2cncnc2)c1 [compound 3]
- IC50 (mGlu5 [4]): 7.5 nM
